Here are results for five compounds from PubChem BioAssay (NCI).

“And” between values parts separate entries of the source, which are not always exact repeats. Equal entries are not always repeated.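 Each compound was tested at five concentrations against cells in 96-well plates for 48 hours. At the GI50, growth is halved. TGI: concentration producing complete growth inhibition.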

Test systems include M19-MEL melanoma; P388/ADR leukemia; P388 leukemia; SN12K1 renal; SNB-78 CNS; DLD-1 colon; HOP-18 NSCLC; LXFL 529 NSCLC; XF 498 CNS; RXF-631 renal; DMS 273 small cell lung; DMS 114 small cell lung.
Holding throughout (test): NCI tumour cell line growth inhibition, 48 h

Consider `CS(=O)(=O)[O-].CS(=O)(=O)[O-].NC1CCCCC1N.[Pt+4]` (stereo unspecified), for which the GI50 was 34.2 µM with M19-MEL melanoma; 43 µM in the experiment with P388/ADR leukemia; 4.81 µM in the experiment on P388 leukemia; more than 100 µM in the experiment on SN12K1 renal; more than 100 µM with SNB-78 CNS; more than 100 µM in the experiment with DLD-1 colon. Also, in the experiment with HOP-18 NSCLC, the GI50 is more than 100 µM. Moreover, the TGI is more than 100 µM with M19-MEL melanoma; more than 100 µM with P388/ADR leukemia; more than 55.7 µM in the experiment on P388 leukemia; more than 100 µM in the experiment with SN12K1 renal; more than 100 µM in the experiment with SNB-78 CNS; more than 100 µM in the experiment with DLD-1 colon. Moreover, the TGI in the experiment on HOP-18 NSCLC was more than 100 µM.
As for `CCN(CC)/[N+]([O-])=N/O`, the TGI with LXFL 529 NSCLC, with M19-MEL melanoma, in the experiment with XF 498 CNS, in the experiment with RXF-631 renal, in the experiment on SNB-78 CNS and in the experiment on DMS 273 small cell lung was more than 100 µM in each case.
With `CCC1(OC(=O)CN)C(=O)OCc2c1cc1n(c2=O)Cc2cc3cc4c(cc3nc2-1)OCO4` (stereo unspecified), the TGI was 1.04 µM and 0.416 µM in the experiment on M19-MEL melanoma; less than 0.01 µM with P388/ADR leukemia; 0.225 µM and 1.04 µM in the experiment with SN12K1 renal; 81.8 µM in the experiment on SNB-78 CNS; 40.5 µM and > 100 µM in the experiment with DLD-1 colon; 2.63 µM and 2.24 µM in the experiment with HOP-18 NSCLC. The TGI with DMS 273 small cell lung was 0.0656 µM and 0.358 µM. Also, the GI50 in the experiment on P388/ADR leukemia was less than 0.01 µM; in the experiment on SN12K1 renal, less than 0.01 µM; in the experiment with SNB-78 CNS it was 0.468 µM; in the experiment on DLD-1 colon, 0.278 µM and 0.203 µM; with HOP-18 NSCLC, 0.166 µM and 0.0534 µM; in the experiment with DMS 273 small cell lung it was less than 0.01 µM.
As to `Cn1c(=O)n(CC2CS2)c2ccccc21` (stereo unspecified), the TGI with LXFL 529 NSCLC, in the experiment with M19-MEL melanoma, in the experiment on DMS 114 small cell lung, with XF 498 CNS, in the experiment on DLD-1 colon and in the experiment with DMS 273 small cell lung was more than 100 µM each time.
`C[C@]12CCC(=O)C=C1CC[C@@H]1[C@@H]2[C@@H](O)C[C@@]2(C)[C@H]1CC[C@]2(O)C(=O)COC(=O)CCC1CCCC1`: the TGI in the experiment with LXFL 529 NSCLC, with M19-MEL melanoma, with DMS 114 small cell lung, in the experiment on XF 498 CNS, in the experiment on SNB-78 CNS and with DLD-1 colon was more than 100 µM each time. Besides, in the experiment on DMS 273 small cell lung, the TGI is more than 100 µM.
